A word on the IC50: it is the concentration that inhibits the measured activity by half.

The target of one data set is P-gp (Homo sapiens, UniProt P08183). The settings on record: 50 µM botryllamide; for fold change in rhodamine fluorescence (P-gp-mediated transport): valspodar 3 µg/ml, P-gp-expressing HEK293; for effect on P-gp: result in words.
In the next data set the target is MRP1 (Homo sapiens, UniProt P33527). The format is cell-based. The settings on record: 50 µM botryllamide; for fold increase in cellular calcein fluorescence (MRP1-mediated transport): MK-571 50 µM, MRP1-expressing HEK293; for effect on MRP1: result in words.
Chain of MRP1 (P33527 whole entry): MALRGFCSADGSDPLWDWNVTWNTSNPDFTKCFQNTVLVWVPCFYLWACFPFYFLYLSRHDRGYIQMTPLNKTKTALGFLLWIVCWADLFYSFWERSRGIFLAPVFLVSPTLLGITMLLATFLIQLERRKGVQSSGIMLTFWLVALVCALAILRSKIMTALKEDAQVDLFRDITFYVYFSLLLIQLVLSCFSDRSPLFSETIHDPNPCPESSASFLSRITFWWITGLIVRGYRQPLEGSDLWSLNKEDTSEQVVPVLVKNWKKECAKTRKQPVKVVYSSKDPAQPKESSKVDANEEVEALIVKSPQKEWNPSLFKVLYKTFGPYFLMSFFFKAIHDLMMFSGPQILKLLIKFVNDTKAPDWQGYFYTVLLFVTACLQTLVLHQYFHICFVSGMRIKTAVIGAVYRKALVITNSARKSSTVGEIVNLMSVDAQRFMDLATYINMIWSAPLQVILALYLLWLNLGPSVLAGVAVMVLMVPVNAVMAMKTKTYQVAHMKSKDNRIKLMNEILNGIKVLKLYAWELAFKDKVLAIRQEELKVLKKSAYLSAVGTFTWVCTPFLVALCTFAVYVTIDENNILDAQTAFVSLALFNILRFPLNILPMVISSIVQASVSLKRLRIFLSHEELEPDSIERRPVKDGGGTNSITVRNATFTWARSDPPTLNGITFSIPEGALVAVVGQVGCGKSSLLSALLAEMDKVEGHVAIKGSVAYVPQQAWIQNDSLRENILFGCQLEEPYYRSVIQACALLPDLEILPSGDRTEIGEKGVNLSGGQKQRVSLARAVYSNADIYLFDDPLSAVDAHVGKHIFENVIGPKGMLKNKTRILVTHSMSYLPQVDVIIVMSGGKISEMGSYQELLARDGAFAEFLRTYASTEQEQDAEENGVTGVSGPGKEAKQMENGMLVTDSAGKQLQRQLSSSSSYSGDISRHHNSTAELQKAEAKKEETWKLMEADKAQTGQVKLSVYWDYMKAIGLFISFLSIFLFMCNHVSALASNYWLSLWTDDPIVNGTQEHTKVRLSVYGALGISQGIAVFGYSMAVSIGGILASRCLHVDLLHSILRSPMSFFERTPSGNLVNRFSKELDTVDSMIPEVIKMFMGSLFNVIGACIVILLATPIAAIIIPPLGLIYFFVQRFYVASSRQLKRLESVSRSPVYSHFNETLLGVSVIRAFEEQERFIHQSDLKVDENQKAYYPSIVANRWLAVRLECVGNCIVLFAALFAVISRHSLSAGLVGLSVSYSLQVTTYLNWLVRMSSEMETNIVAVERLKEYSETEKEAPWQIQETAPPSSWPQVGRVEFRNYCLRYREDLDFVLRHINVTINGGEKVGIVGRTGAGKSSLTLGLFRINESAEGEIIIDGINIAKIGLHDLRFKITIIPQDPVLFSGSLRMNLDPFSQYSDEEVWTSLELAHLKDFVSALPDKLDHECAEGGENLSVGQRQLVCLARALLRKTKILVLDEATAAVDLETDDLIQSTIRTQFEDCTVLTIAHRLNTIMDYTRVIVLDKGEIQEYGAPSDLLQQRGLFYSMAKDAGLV
Data set [1] has as its target T1, ABCG2 (Homo sapiens, UniProt Q9UNQ0).
T1 sequence (Q9UNQ0 1-655): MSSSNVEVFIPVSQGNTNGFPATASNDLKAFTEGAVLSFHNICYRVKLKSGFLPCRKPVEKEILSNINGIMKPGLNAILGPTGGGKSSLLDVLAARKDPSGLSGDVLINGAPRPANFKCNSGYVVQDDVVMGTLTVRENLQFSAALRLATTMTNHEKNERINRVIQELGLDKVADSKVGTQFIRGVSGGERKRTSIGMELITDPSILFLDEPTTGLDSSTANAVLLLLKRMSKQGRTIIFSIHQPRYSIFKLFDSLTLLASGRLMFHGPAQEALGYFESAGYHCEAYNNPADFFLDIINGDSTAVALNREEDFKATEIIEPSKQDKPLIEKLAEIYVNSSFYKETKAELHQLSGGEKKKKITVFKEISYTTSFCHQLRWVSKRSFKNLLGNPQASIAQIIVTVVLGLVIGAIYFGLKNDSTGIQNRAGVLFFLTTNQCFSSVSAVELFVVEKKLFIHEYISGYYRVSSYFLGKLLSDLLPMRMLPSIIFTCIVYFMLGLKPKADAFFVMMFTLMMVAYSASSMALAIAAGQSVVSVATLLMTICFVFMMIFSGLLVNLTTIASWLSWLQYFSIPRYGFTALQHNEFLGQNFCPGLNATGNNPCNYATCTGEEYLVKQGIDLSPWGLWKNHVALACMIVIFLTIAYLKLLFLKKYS
The format is cell-based. The settings on record: 10 µM compound; for activity in the BODIPY-prazosin flow cytometry assay: result in words. A general note: In flow cytometry, cells or beads pass a laser one at a time.

Data set [2] addresses T1, ABCG2. In words: Screening assay: pheophorbide a. Format: cell-based.
For data set [3], the system named is NCI-H460/MX20 (ABCG2-overexpressing) cells.
In data set [4] the test system is parental NCI-H460 (ABCG2-) and NCI-H460/MX20 (ABCG2+) cells. In words: Cytotoxicity of botryllamides alone, 7 d. Format: cell-based, human. The settings on record: 100 µM botryllamide, result in words.
Data set [5] concerns the target T1, ABCG2. The settings on record: 20 µM compound, MCF-7 FLV1000 membranes.
In a further data set the test system is NCI-H460 parental cells. As to the kind of experiment: Mitoxantrone cytotoxicity in parental cells. The format is cell-based, human. The settings on record: 10 µM mitoxantrone, vs vehicle (data not shown).
The nature of data set [6]: Light-induced isomerization on exposure to sunlight. The format is physicochemical. The settings on record: result in words.

Entries after “also recorded” stand apart in the source; their conditions may differ. Where two headings read alike, the source gives them in different places. Marks after values point to notes of the source that are not given here.

Chain of P-gp (P08183 whole entry): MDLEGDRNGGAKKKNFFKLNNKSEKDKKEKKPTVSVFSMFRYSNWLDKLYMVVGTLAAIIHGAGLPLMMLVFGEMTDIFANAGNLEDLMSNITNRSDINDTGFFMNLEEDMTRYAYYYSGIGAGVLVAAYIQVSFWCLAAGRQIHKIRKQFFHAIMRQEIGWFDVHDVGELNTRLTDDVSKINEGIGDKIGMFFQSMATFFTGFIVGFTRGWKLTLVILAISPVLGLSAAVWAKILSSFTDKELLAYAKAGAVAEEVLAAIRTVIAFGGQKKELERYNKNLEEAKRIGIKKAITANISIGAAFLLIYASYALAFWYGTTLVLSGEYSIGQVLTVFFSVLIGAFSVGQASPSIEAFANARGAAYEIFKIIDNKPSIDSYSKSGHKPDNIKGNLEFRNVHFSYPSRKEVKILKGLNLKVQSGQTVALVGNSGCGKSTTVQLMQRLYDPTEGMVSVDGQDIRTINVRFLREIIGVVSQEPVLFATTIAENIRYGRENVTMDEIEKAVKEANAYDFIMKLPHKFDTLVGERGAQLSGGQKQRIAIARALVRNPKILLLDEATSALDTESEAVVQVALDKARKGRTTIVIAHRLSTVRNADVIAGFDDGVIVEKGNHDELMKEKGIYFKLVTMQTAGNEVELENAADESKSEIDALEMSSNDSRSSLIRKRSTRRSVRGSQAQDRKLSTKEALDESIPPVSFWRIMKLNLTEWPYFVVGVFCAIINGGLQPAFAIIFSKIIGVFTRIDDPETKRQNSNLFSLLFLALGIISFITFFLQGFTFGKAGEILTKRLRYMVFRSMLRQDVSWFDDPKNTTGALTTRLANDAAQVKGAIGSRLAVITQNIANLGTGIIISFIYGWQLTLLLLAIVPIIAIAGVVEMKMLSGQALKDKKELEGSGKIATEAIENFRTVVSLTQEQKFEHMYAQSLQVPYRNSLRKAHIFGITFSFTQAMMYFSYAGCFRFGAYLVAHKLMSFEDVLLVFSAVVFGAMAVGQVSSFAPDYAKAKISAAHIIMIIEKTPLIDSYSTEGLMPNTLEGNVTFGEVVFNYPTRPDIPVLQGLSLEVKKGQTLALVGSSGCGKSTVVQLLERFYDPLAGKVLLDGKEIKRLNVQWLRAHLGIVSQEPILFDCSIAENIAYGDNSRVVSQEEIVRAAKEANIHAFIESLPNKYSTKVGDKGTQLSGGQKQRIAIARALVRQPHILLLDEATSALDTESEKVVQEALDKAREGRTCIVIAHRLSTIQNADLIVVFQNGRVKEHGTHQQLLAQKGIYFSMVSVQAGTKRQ

For `CO/C(=C\c1ccc(O)cc1)C(=O)N/C=C/c1cc(Br)c(OC)c(Br)c1` [Botryllamide A, botryllamide A], the “fold change in rhodamine fluorescence (P-gp-mediated transport)” value (shortened to “fold change … (P-gp-mediated transport)”) on P-gp is 17.6 fold. For the same molecule, on MRP1, the “fold increase in cellular calcein fluorescence (MRP1-mediated transport)” value is 4.5 fold.

In the case of `CO/C(=C\c1ccc(O)cc1)C(=O)N/C=C/c1ccc(OC)c(Br)c1` [Botryllamide C, botryllamide C], at ABCG2 [1], the “activity in the BODIPY-prazosin flow cytometry assay” value is listed as “active”. Further, on ABCG2 [2] (result in words), the “activity in the screening assay (PhA)” value was “inactive”. The “fold change … (P-gp-mediated transport)” value at P-gp is 46.4 fold. In [3] (10 µM compound + 10 µM mitoxantrone, result in words), the “activity in the mitoxantrone resistance reversal assay” value is “not particularly active”. Moreover, the “fold increase in cellular calcein fluorescence (MRP1-mediated transport)” value at MRP1 is listed as 3.7 fold.

`CO/C(=C\c1ccc(O)cc1)C(=O)N/C=C/c1ccc(OC)c(Br)c1` [Botryllamide D, botryllamide D]: the IC50 against ABCG2 [2] was 16.4 ± 2.3 µM. For the same molecule, at P-gp, the “effect on P-gp” value was “inactive”. Also, the cytotoxicity entry in data set [4] is given as “significant cytotoxicity”.

With `CO/C(=C\c1ccc(O)cc1)C(=O)N/C=C/c1ccc(OC)cc1` [Botryllamide E, botryllamide E], the “effect on P-gp” value on P-gp was “minimal effects; also recorded: inactive”. In addition, the “effect on MRP1” value on MRP1 is “minimal effects”.

As to `CO/C(=C\c1ccc(O)cc1)C(=O)N/C=C/c1ccc(O)cc1` [Botryllamide F, botryllamide F], the cytotoxicity entry in data set [4] was “significant cytotoxicity”.

Consider `CO/C(=C\c1ccc(O)cc1)C(=O)N/C=C/c1cc(Br)c(O)c(Br)c1` [Botryllamide G, botryllamide G], for which the “max activity (% FTC)” value on ABCG2 [2] (human) is 123.7 ± 1.7 ^d % FTC. The “effect on P-gp” value on P-gp was “minimal effects; also recorded: inactive”. The “effect on MRP1” value at MRP1 is recorded as “minimal effects”.

With `[C-]#[N+]c1c(O)cccc1/C=C(/O)C(=O)N/C=C/c1ccc(O)cc1` [Botryllamide H, botryllamide H], the “activity in the BODIPY-prazosin flow cytometry assay” value on ABCG2 [1] is “inactive”. For the same molecule, the “activity in the screening assay (PhA)” value at ABCG2 [2] is “inactive”.

Regarding `COc1ccc2c3c([nH]c2c1)[C@H](C=C(C)C)N1C(=O)[C@@H]2CCCN2C(=O)[C@@H]1C3` [FTC, fumitremorgin C, reference compound], the “fold increase in intracellular BODIPY-prazosin fluorescence” value at ABCG2 [1] (ABCG2-transfected HEK293, vs absence of inhibitor) was determined as 3.4 fold. Further, in [3] (10 µM compound + 10 µM mitoxantrone, 3 days, vs vehicle (DMSO) control), the “cells surviving in the presence of mitoxantrone” value is 57%. At ABCG2 [5], the “[125I]IAAP binding (incorporation into ABCG2)” value was 14 % of control.

On to `O=C1c2c(O)ccc(O)c2C(=O)c2c(NCCNCCO)ccc(NCCNCCO)c21` [mitoxantrone, reference compound], for which the “cells surviving with mitoxantrone alone” value in the data set on NCI-H460 parental cells was “approximately 50%”. Also, the “cells alive with mitoxantrone alone” value in data set [3] (10 µM mitoxantrone, 3 days, NCI-H460 MX20, vs vehicle (DMSO)) is on record as “approximately 88%”.

As for `C/C=C/C[C@@H](C)C(=O)[C@H]1C(=O)N[C@@H](C(C)C)C(=O)N(C)CC(=O)N(C)[C@@H](CC(C)C)C(=O)N[C@@H](C(C)C)C(=O)N(C)[C@@H](CC(C)C)C(=O)N[C@@H](C)C(=O)N[C@H](C)C(=O)N(C)[C@@H](CC(C)C)C(=O)N(C)[C@@H](CC(C)C)C(=O)N(C)[C@@H](C(C)C)C(=O)N1C` [valspodar, reference compound], the “fold change … (P-gp-mediated transport)” value at P-gp is given as 29.7 fold.

Take botryllamide B: the IC50 against ABCG2 [2] amounted to 11.2 ± 0.6 µM. Further, in data set [4], the cytotoxicity result is “significant cytotoxicity”.

For botryllamide I, on ABCG2 [2], the midpoint of inhibition, the IC50, lay at 41.4 ± 6.1 µM. In [6], the stability to sunlight entry is given as “irreversibly converted to botryllamide E (5) by exposure to sunlight”.

The values are drawn from article PMC2853803 (ACS chemical biology, 2009).
